Data published in the supplement of paper PMC10307832.

Key:
Experiment in all cases: relative viability (nuclei count vs DMSO), 5 days (fraction); higher = more cells survive
VX-11e + Vorinostat = compound: CC1=CN=C(N=C1C2=CNC(=C2)C(=O)N[C@H](CO)C3=CC(=CC=C3)Cl)NC4=C(C=C(C=C4)F)Cl [VX-11e] + O=C(CCCCCCC(=O)Nc1ccccc1)NO [Vorinostat] (partner 1 µM)
Method in brief: (§1)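 The day after seeding in 1536-well plates, lung cancer cell lines were treated by pin tool with a single drug, or with a fixed anchor-drug dose together with five library-drug doses (not always all listed) in √10 steps. After 5 days, a combined fix-and-stain solution (final 0.05% Triton X-100, 1% formaldehyde, 1 ug/ml Hoechst) was added. Nuclei counted on 4× images gave relative viability as treated counts over vehicle counts, reported as the median of duplicate plates.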

VX-11e + Pemetrexed = compound: CC1=CN=C(N=C1C2=CNC(=C2)C(=O)N[C@H](CO)C3=CC(=CC=C3)Cl)NC4=C(C=C(C=C4)F)Cl [VX-11e] + Nc1nc2[nH]cc(CCc3ccc(C(=O)N[C@@H](CCC(=O)O)C(=O)O)cc3)c2c(=O)[nH]1 [Pemetrexed] (partner 0.2 µM)
Method in brief: as §1

VX-11e + Navitoclax = compound: CC1=CN=C(N=C1C2=CNC(=C2)C(=O)N[C@H](CO)C3=CC(=CC=C3)Cl)NC4=C(C=C(C=C4)F)Cl [VX-11e] + CC1(C)CCC(c2ccc(Cl)cc2)=C(CN2CCN(c3ccc(C(=O)NS(=O)(=O)c4ccc(N[C@H](CCN5CCOCC5)CSc5ccccc5)c(S(=O)(=O)C(F)(F)F)c4)cc3)CC2)C1 [Navitoclax] (partner 0.5 µM)
Method in brief: as §1

VX-11e + Linsitinib = compound: CC1=CN=C(N=C1C2=CNC(=C2)C(=O)N[C@H](CO)C3=CC(=CC=C3)Cl)NC4=C(C=C(C=C4)F)Cl [VX-11e] + C[C@]1(O)C[C@@H](c2nc(-c3ccc4ccc(-c5ccccc5)nc4c3)c3c(N)nccn32)C1 [Linsitinib] (partner 1 µM)
Method in brief: as §1

Cell Line	relative viability (VX-11e + Vorinostat; first compound 0.04 µM)	relative viability (VX-11e + Vorinostat; first compound 0.1265 µM)	relative viability (VX-11e + Vorinostat; first compound 0.4 µM)	relative viability (VX-11e + Vorinostat; first compound 1.265 µM)	relative viability (VX-11e + Vorinostat; first compound 4 µM)	relative viability (VX-11e + Pemetrexed; first compound 0.04 µM)	relative viability (VX-11e + Pemetrexed; first compound 0.1265 µM)	relative viability (VX-11e + Pemetrexed; first compound 0.4 µM)	relative viability (VX-11e + Pemetrexed; first compound 1.265 µM)	relative viability (VX-11e + Pemetrexed; first compound 4 µM)	relative viability (VX-11e + Navitoclax; first compound 0.04 µM)	relative viability (VX-11e + Navitoclax; first compound 0.1265 µM)	relative viability (VX-11e + Navitoclax; first compound 0.4 µM)	relative viability (VX-11e + Navitoclax; first compound 1.265 µM)	relative viability (VX-11e + Navitoclax; first compound 4 µM)	relative viability (VX-11e + Linsitinib; first compound 0.04 µM)	relative viability (VX-11e + Linsitinib; first compound 0.1265 µM)	relative viability (VX-11e + Linsitinib; first compound 0.4 µM)	relative viability (VX-11e + Linsitinib; first compound 1.265 µM)	relative viability (VX-11e + Linsitinib; first compound 4 µM)
NCI-H1734	0.71	0.779	0.593	0.449	0.341	0.428	0.398	0.445	0.306	0.315	0.787	0.796	0.685	0.652	0.245	0.797	0.789	0.814	0.837	0.536
NCI-H1755	0.795	0.686	0.782	0.764	0.598	0.449	0.326	0.409	0.424	0.396	1.06	0.956	0.972	0.956	0.558	1.03	0.976	0.95	0.94	0.553
NCI-H1793	–	0.618	–	0.569	0.257	–	0.715	–	0.591	0.259	–	0.526	–	0.382	0.152	–	0.687	–	0.818	0.514
NCI-H1915	0.469	0.493	0.526	0.607	0.43	0.484	0.509	0.477	0.381	0.388	0.826	0.761	0.787	0.682	0.546	1.21	1.12	1.19	1.04	0.857
NCI-H1944	0.492	0.506	0.441	0.478	0.408	0.602	0.77	0.382	0.505	0.374	0.947	1.03	0.951	0.944	0.504	1.08	1.09	0.998	0.862	0.552
NCI-H1975	0.736	0.724	0.664	0.677	0.465	0.307	0.276	0.295	0.27	0.258	1.03	1.09	1.13	1.06	0.612	0.841	1.09	0.991	0.959	0.367
NCI-H1993	–	0.819	0.505	0.47	0.623	–	0.537	0.457	0.58	0.521	–	1.03	–	0.804	0.612	–	0.757	–	0.769	0.666
NCI-H2009	0.794	0.604	0.638	0.791	0.233	1.08	1.03	1.12	1.1	0.673	1.17	1.14	1.2	0.938	0.289	1.17	1.11	1.18	1.09	0.259
NCI-H2023	0.709	0.604	0.289	0.318	0.209	0.224	0.241	0.225	0.145	0.157	1.02	0.879	0.966	1	0.405	0.727	0.692	0.596	0.362	0.283
NCI-H2085	0.826	0.707	0.689	0.449	0.584	0.862	0.873	0.81	0.635	0.583	1.17	1.02	1.1	0.919	0.719	0.987	0.818	0.834	0.9	0.649
NCI-H2087	0.944	0.644	–	0.495	0.239	0.691	0.613	–	0.64	0.544	0.983	1	0.999	0.8	0.257	0.949	1.1	0.902	0.803	0.302
NCI-H2126	0.512	0.686	0.352	0.474	0.52	0.554	0.621	0.399	0.567	0.517	–	0.861	0.877	0.785	0.638	–	0.735	0.689	0.677	0.556
NCI-H2228	0.646	0.66	0.617	0.58	0.399	0.337	0.371	0.363	0.311	0.183	0.902	0.73	1.08	0.477	0.162	0.577	0.692	0.489	0.308	0.214
NCI-H2347	0.514	0.688	0.5	0.349	0.316	0.412	0.442	0.423	0.389	0.368	0.932	0.818	0.683	0.352	0.213	1.07	0.927	0.798	0.7	0.496
NCI-H2405	0.993	0.866	1.22	0.918	0.565	1.09	0.957	0.678	0.989	0.501	1.03	0.921	–	0.592	0.126	0.933	0.787	–	0.817	0.272
NCI-H3122	0.85	0.885	0.684	0.987	0.589	0.202	0.205	0.162	0.171	0.152	0.969	1.02	0.989	0.995	0.597	0.971	1.01	0.974	0.929	0.58
PC-3 [JPC-3]	0.752	0.708	1.01	0.646	0.755	1.08	1.09	1.12	0.976	0.846	0.786	0.803	0.682	0.831	0.743	1.08	0.959	0.99	1.09	0.822
